Structures can show the parent of a compound that is named as a salt.
Experiments:
[1] = tested on: MDA-MB-435; assay: In vitro proliferation assay (MTT), MDA-MB-435; type: cell-based, human; conditions: Homo sapiens, MDA-MB-435, MTT assay; value (SD, n) where given; read-out: MB-435 Breast (IC50 µM)
How it was run: (§1)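 MTT viability, 3 d compound treatment; seeding 1000–2500 cells/well, overnight attachment; formazan in DMSO, A570; IC50 fitted from raw absorbance.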

[2] = tested on: Jurkat; assay: In vitro proliferation assay (MTT), Jurkat; type: cell-based; conditions: Homo sapiens, MTT assay, value (SD, n) where given, read-out: Jurkat Leuk. (IC50 µM)
Method: (§2) The proliferation of tumor cells can be measured using a tetrazolium salt-based assay known as the MTT (3-[4,5-Dimethylthiazol-2-yl]-2,5-diphenyltetrazolium bromide) assay. The proliferation test is performed essentially as described by Carmichael et al., Cancer Res. 47: 936-942, 1987. For the assay, the cell lines are plated onto 96 well plates at 1000 to 2500 cells/well (depending on the properties of the individual cell lines), left to attach and recover overnight. […] After 3 days, the cells are incubated with MTT dye (3-[4,5-Dimethylthiazol-2-yl]-2,5-diphenyltetrazolium bromide, Sigma # M5655, 10 mg/ml in Hank's Buffered Saline) to estimate the amount of live cells remaining vs. concentration for the test compounds. Specifically, MTT solution is added to a final concentration of […] and the plates incubated at 37 C for 2 to 4 hr. The MTT and culture medium is then removed from the cultures and 200 µl of DMSO is added to solubilize the dye from the cell layer. The absorbance at 570 nm is determined for each culture using a Spectramax plate reader (Molecular Devices).
(§3) IC50s were determined from the raw data from either the MTT or SRB assays.
(§4) All of the cell lines were obtained from American Type Tissue Collection, with the ATCC accession number in parentheticals. MCF-7 and MDA-MB-231 cells were grown in improved minimum essential medium (Biofluids) without phenol red, supplemented with 5 % fetal bovine serum, 0.01 mg/ml gentamicin and 3 mM L-glutamine. All of the other cell lines were grown in RPMI 1640 medium (Life Technologies) supplemented with 5 % fetal bovine serum, 0.01 mg/ml gentamicin and 3 mM L-glutamine TABLE 3

[3] = biological target: cdk4/cyclin D1 (Homo sapiens, UniProt P11802); assay: Cyclin-dependent kinase assay, cdk4/cyclin D1; type: biochemical; conditions: cyclin D1/cdk4; GST-pRb substrate, 10 µM ATP
Sequence of cdk4/cyclin D1 (P11802 whole entry): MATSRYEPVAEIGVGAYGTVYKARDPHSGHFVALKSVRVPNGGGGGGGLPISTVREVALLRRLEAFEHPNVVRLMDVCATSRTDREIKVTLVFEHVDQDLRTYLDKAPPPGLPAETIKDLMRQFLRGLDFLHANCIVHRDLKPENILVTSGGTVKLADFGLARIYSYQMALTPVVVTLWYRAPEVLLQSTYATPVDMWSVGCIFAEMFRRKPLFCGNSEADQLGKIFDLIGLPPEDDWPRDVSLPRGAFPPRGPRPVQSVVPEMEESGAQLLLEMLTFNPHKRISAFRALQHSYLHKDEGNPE
Sequence of cdk4/cyclin D1 (P24385 whole entry partner): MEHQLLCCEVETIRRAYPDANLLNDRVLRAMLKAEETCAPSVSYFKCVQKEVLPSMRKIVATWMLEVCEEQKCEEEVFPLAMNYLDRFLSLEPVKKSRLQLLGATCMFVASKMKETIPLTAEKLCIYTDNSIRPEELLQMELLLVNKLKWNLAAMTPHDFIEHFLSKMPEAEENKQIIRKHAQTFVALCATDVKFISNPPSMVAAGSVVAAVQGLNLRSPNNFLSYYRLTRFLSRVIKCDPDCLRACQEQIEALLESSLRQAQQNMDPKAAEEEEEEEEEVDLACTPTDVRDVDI

[4] = tested on: Colo-205; assay: In vitro proliferation assay (MTT), Colo-205; type: cell-based; conditions: Homo sapiens, COLO 205; MTT assay; value (SD, n) where given; read-out: Colo-205 Colon (IC50 µM)
How it was run: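 Colo-205 cells were seeded at 1000–2500 cells/well and allowed to attach overnight, then exposed to compound for 3 days. Viable cells were measured by MTT reduction (2–4 h, 37 °C), with DMSO-solubilised dye read at 570 nm. IC50 was derived from concentration–response data.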

[5] = biological target: cdk1/cyclin B (Homo sapiens, UniProt P06493); assay: Cyclin-dependent kinase assay, cdk1/cyclin B; conditions: CDK1 IC50, nM, Histone H1, 10 µM ATP
Sequence of cdk1/cyclin B (P06493 whole entry): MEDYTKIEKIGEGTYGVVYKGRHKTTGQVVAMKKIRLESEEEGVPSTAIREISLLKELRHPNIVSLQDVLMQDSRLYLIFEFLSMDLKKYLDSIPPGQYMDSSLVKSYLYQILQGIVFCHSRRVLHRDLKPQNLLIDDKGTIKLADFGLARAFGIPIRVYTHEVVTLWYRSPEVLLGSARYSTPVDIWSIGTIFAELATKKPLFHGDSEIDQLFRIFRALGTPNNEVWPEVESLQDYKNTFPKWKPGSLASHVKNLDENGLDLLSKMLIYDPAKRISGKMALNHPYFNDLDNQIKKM
Sequence of cdk1/cyclin B (P14635 whole entry partner): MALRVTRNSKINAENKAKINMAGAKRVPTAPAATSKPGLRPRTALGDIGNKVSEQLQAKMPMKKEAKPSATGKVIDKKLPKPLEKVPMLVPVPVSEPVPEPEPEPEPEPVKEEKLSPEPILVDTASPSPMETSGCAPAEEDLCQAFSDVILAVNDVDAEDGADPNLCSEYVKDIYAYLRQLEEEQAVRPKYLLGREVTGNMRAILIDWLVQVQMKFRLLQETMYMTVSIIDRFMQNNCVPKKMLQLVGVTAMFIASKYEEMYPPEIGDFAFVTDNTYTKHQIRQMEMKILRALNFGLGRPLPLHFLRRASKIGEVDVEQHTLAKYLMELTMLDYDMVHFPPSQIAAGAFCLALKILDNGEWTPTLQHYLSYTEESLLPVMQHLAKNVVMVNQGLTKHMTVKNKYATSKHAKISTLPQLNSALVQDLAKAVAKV

[6] = tested on: HL-60; assay: In vitro proliferation assay (MTT), HL-60; type: cell-based; conditions: Homo sapiens, HL-60; MTT assay; value (SD, n) where given; read-out: HL-60 Leuk. (IC50 µM)
Method: as §2, §3, §4

[7] = tested on: PC-3; assay: In vitro proliferation assay (MTT), PC-3; type: cell-based, human; conditions: Homo sapiens, PC-3, MTT assay; value (SD, n) where given; read-out: PC-3 Prostate (IC50 µM)
How it was run: as §1

[8] = tested on: NCI-H460; assay: In vitro proliferation assay (MTT), NCI-H460; type: cell-based; conditions: Homo sapiens, NCI-H460; MTT assay; value (SD, n) where given; read-out: H-460 Lung (IC50 µM)
How it was run: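 Plate 1000–2500 cells/well, RPMI 1640 + 5 % FBS, 3 mM L-glutamine; attach overnight → compound treatment 3 days → MTT, 37 C, 2–4 hr → remove medium, solubilize in DMSO → absorbance 570 nm → IC50.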

[9] = biological target: cdk2/cyclin E (Homo sapiens, UniProt P24941); assay: Cyclin-dependent kinase assay, cdk2/cyclin E; conditions: CDK2 IC50, nM, GST-pRb substrate, 10 µM ATP

IC50 [1] [µM]	IC50 [2] [µM]	IC50 [3] [nM]	IC50 [4] [µM]	IC50 [5] [nM]	IC50 [6] [µM]	IC50 [7] [µM]	IC50 [8] [µM]	IC50 [9] [nM]	SMILES
0.17	0.28	855	0.19	37	0.05	0.21	0.21	57	COc1ccccc1NC(=O)N1CCC(Nc2nc(N[C@H]3CC[C@H](N)CC3)nc3c2ncn3C2CCCC2)CC1 [compound 163, trans-4-[2-(4-Amino-cyclohexylamino)-9-cyclopentyl-9H-purin-6-ylamino]-piperidine-1-carboxylic acid (2-methoxy-phenyl)-amide dihydrochloride]
0.14	0.28	879	0.09	49	< 0.02	0.16	0.23	100	N[C@H]1CC[C@H](Nc2nc(NC3CCN(C(=O)Nc4ccc(Cl)cc4C(F)(F)F)CC3)c3ncn(C4CCCC4)c3n2)CC1 [compound 178, trans-4-[2-(4-Amino-cyclohexylamino)-9-cyclopentyl-9H-purin-6-ylamino]-piperidine-1-carboxylic acid (4-chloro-2-trifluoromethyl-phenyl)-amide dihydrochloride]
0.2	0.24	91	0.02	26	< 0.02	0.25	0.19	55	N[C@H]1CC[C@H](Nc2nc(NC3CCN(C(=O)Nc4ccc(Cl)cc4)CC3)c3ncn(C4CCCC4)c3n2)CC1 [compound 150, trans-4-[2-(4-Amino-cyclohexylamino)-9-cyclopentyl-9H-purin-6-ylamino]-piperidine-1-carboxylic acid (4-chloro-phenyl)-amide dihydrochloride]
0.1	0.2	431	0.04	12	< 0.02	0.09	0.12	44	N[C@H]1CC[C@H](Nc2nc(NC3CCN(C(=O)Nc4cc(F)ccc4F)CC3)c3ncn(C4CCCC4)c3n2)CC1 [compound 180, trans-4-[2-(4-Amino-cyclohexylamino)-9-cyclopentyl-9H-purin-6-ylamino]-piperidine-1-carboxylic acid (2,5-difluoro-phenyl)-amide dihydrochloride]

More lines, now with the values behind:

SMILES	IC50 [1] [µM]	IC50 [2] [µM]	IC50 [3] [nM]	IC50 [4] [µM]	IC50 [5] [nM]	IC50 [6] [µM]	IC50 [7] [µM]	IC50 [8] [µM]	IC50 [9] [nM]
CCOc1ccccc1NC(=O)N1CCC(Nc2nc(N[C@H]3CC[C@H](N)CC3)nc3c2ncn3C2CCCC2)CC1 [compound 171, trans-4-[2-(4-Amino-cyclohexylamino)-9-cyclopentyl-9H-purin-6-ylamino]-piperidine-1-carboxylic acid (2-ethoxy-phenyl)-amide dihydrochloride]	0.25	0.31	963	0.14	51	0.05	0.23	0.23	89
N[C@H]1CC[C@H](Nc2nc(NC3CCN(C(=O)Nc4ccccc4-c4ccccc4)CC3)c3ncn(C4CCCC4)c3n2)CC1 [compound 187, trans-4-[2-(4-Amino-cyclohexylamino)-9-cyclopentyl-9H-purin-6-ylamino]-piperidine-1-carboxylic acid biphenyl-2-yl-amide dihydrochloride]	0.21	0.35	831	0.19	280	< 0.02	0.19	0.25	61
N[C@H]1CC[C@H](Nc2nc(NC3CCN(S(=O)(=O)c4cccc5cccnc45)CC3)c3ncn(C4CCCC4)c3n2)CC1 [compound 144, trans-N^2-(4-Amino-cyclohexyl)-9-cyclopentyl-N^6-[1-(quinoline-8-sulfonyl)-piperidin-4-yl]-9H-purine-2,6-diamine dihydrochloride]	0.16	0.25	75	0.05	2	0.12	0.18	0.33	2

From patent EP1377579B1 (Aventis Pharmaceuticals Inc., priority 2000, dated 2002)
